In patent US20050233991A1, “Methods and compositions for the identification, assessment, and therapy of small cell lung cancer” (priority 2002, published 2005):
Values belong to the compound of their own block, whether it stands above or below them.

How the values were obtained:
NCI-H446 cells = experiment: Phase contrast microscopy of SDF-1α induced adhesion/morphology with LY294002; type: cell-based, human; conditions: SDF-1α 100 ng/ml, 24 hour time point
Experimental: (§1) Phase-contrast photomicrographs were taken at various time points (0, 1, 2, 4, 8, and 24 hours). For LY294002 studies, starved NCI-H446 cells (1×10^6) were resuspended in serum free media and placed onto a 35 mm tissue culture dish (Becton Dickinson Labware).
Phase-contrast microscopy pictures were taken at the 24 hour time point. Most of the untreated cells kept their rounded shape and formed clusters, and nearly half of them attached weakly to the bottom of the dish.

NCI-H69 cells [1] = experiment: Phase contrast microscopy of morphological changes with SDF-1α, SCF and STI571; type: cell-based, human; conditions: for morphological change of NCI-H69 cells in response to ligand: 100 ng/ml, pictures after 8 hours
Experimental: as §1
It has not been shown previously that there is a functional interaction between CXCR4 and c-Kit in SCLC. […] Phase-contrast microscopy pictures were then taken after 8 hours. Morphological changes began to be apparent at 4 hours, and the changes plateaued between 8 and 24 hours. […] Inhibition of the active c-Kit receptor by STI571 may lead to the inhibition of other active receptors such as CXCR4.

Akt and p70 S6 kinase = experiment: Immunoblotting of Akt and p70 S6 kinase phosphorylation; type: cell-based, human; conditions: for time to phosphorylation of Akt (Ser 473) and p70 S6 kinase (Thr 389): 50 ng/ml, serum starved NCI-H69 cells
Experimental: (§2) Cells were lysed in lysis buffer (20 mM Tris pH 8.0, 150 mM NaCl, 10% glycerol, 1% NP-40, 0.42% NaF) containing protease inhibitors (1 mM PMSF, 1 mM Na3VO4, 5 μg/ml aprotinin, 5 μg/ml leupeptin). Cell lysates were separated by 7.5% SDS-PAGE under reducing conditions and transferred to nitrocellulose membranes (Schleicher & Schuell, Dassel, Germany). Proteins were detected by immunoblotting using an enhanced chemiluminescence technique (NEN Life Science Products, Mass.). Rabbit polyclonal antibodies against c-Kit (C-19; Santa Cruz Biotechnology, Inc., Santa Cruz, Calif.), Akt, Akt (pSer 473), Akt (pThr 308), p70 S6 kinase, and p70 S6 kinase (pThr 389) (Cell Signaling Technology, Inc., Beverly, Mass.) and monoclonal antibodies against […]-actin (AC-15; Sigma, St. Louis, Mo.) and phosphotyrosine (4G10, UBI, Lake Placid, N.Y.) were used.
(§3) The activity of the PI3-K downstream targets Akt and p70 S6 kinase is regulated through critical serine/threonine (Ser/The) residues (Franke, T. F. et al. (1997) Cell 88:435-7; Pullen, N. and Thomas, G. (1997) FEBS Lett 410:78-82). […] Cell lysates were applied to a 7.5% SDS-PAGE gel and transferred to nitrocellulose membrane. The membrane was probed with monoclonal antibodies against phosphotyrosine (4G10) and β-actin and polyclonal antibodies against Akt (pSer 473) and p70 S6 kinase (S6K) (pThr 389). […] On the other hand, maximal tyrosine phosphorylation of proteins at 60-90 kDa and 110-145 kDa occurred within 2.5-7.5 minutes in response to SCF.
Lysates were processed as described above in Example 6, and the membrane was probed with the phospho-specific or regular antibodies against Akt and p70 S6 kinase, as well as with an anti-c-Kit antibody. […] The expression levels of Akt, p70 S6 kinase, and c-Kit were not affected by any of these treatments.

human c-Kit (human) = experiment: cell-based or functional assay
NCI-H69 cells [2] = experiment: Cell viability assay (trypan blue dye exclusion); type: cell-based, human; conditions: 100 ng/ml; for increase in viable cell number: 10% FCS, 72 hours; for effect on cell survival: without serum
Experimental: Ten small cell lung cancer (SCLC) cell lines (NCI-H69, NCI-H82, NCI-H128, NCI-H146, NCI-H209, NCI-H249, NCI-H345, NCI-H446, NCI-H510, and NCI-H526) were purchased from the American Type Culture Collection (Rockville, Md.) and maintained in RPMI 1640 medium (Cellgro) supplemented with 10% (v/v) fetal calf serum (FCS). MO7e cells were maintained as described in Sattler, M. et al. (1997) J. Biol. Chem. 272:10248-53. All cell lines were incubated at 37° C. in a 5% CO2 humidified atmosphere and harvested during log phase growth. Cells were deprived of growth factors by incubation in RPMI 1640 medium containing 0.5% (w/v) bovine serum albumin (BSA) (Sigma, St. Louis, Mo.) for 18 hours. In some experiments, cells were treated with 5 μM STI571 (Gleevec™, Novartis Pharmaceuticals, Basel, Switzerland) or 25 μM LY294002 (Sigma).
Viable cells were counted by trypan blue dye exclusion test every 24 hours up to 72 hours. Data was plotted as the mean±SD from three independent experiments. Student's t test was used for the statistical analysis of viable cell number under individual conditions. Differences were considered statistically significant at p<0.05.

[3] = tested on: tyrosine phosphorylation of cellular proteins in NCI-H69 cells; experiment: Immunoblotting of tyrosine phosphorylation of cellular proteins (4G10); type: cell-based, human
Experimental: as §2, §3

Compound: O=c1cc(N2CCOCC2)oc2c(-c3ccccc3)cccc12 [LY294002, reference compound]
cells floating with rounded shapes in spite of SDF-1α treatment (NCI-H446 cells; LY294002 25 μM): more than 90%

Compound: Cc1ccc(NC(=O)c2ccc(CN3CCN(C)CC3)cc2)cc1Nc1nccc(-c2cccnc2)n1 [STI571]
inhibition of the morphological changes (NCI-H69 cells [1]; STI571 5 μM): only in the presence of SCF
neurite like projections induced by SDF-1α alone in the presence of STI571 (NCI-H69 cells [1]; STI571 5 μM, SDF-1α 100 ng/ml): still formed
neurite like structures in STI571 treated cells stimulated with both SDF-1α and SCF (NCI-H69 cells [1]; STI571 5 μM, SDF-1α 100 ng/ml and SCF 100 ng/ml): could not form any neurite like structures
effect of pre-treatment on SCF induced phosphorylation of Akt and p70 S6 kinase (Akt and p70 S6 kinase; STI571 5 μM or LY294002 25 μM overnight, then 50 ng/ml SCF 15 minutes, NCI-H69 cells): inhibited

Second part, led by results:

concentration for optimal phosphorylation of cellular proteins in NCI-H69 cells (immunoblot, dose-response) (human c-Kit (human)): 10 ng/mL
time to phosphorylation of Akt (Ser 473) and p70 S6 kinase (Thr 389) in NCI-H69 cells, 50 ng/ml SCF (human c-Kit (human)): < 2.5 min
Compound: Recombinant human SCF (stem cell factor) (from UniProt P21583 26-189) (ligand)
cell proliferation of NCI-H69 cells (viable cell count, trypan blue), 10% FCS, 100 ng/ml SCF, 48 hours, increase compared with untreated control (human c-Kit (human)): 21.5%

time to phosphorylation of Akt (Ser 473) and p70 S6 kinase (Thr 389) (Akt and p70 S6 kinase): ≤ 2.5 min
Compound: SCF: Recombinant human stem cell factor, natural ligand of c-Kit
increase in viable cell number (NCI-H69 cells [2]): 16.5%
cell proliferation induced, as compared with untreated control (NCI-H69 cells [2]; media containing 10% FCS, 48 hours): 21.5%
effect on cell survival (NCI-H69 cells [2]): neither SCF nor SDF-1α showed any effect
morphological change of NCI-H69 cells in response to ligand (NCI-H69 cells [1]): Neurite like actin formations were observed
concentration giving optimal phosphorylation of cellular proteins (dose-response studies) ([3]; NCI-H69 cells): ≥ 10 ng/mL
time of maximal tyrosine phosphorylation of proteins at 60-90 kDa and 110-145 kDa ([3]; SCF 50 ng/ml, serum starved NCI-H69 cells): 2.5-7.5 minutes

time to phosphorylation of Akt (Ser 473) and p70 S6 kinase (Thr 389) (Akt and p70 S6 kinase): ≤ 5 min
Compound: SDF-1α: Recombinant human SDF-1α, natural ligand for CXCR4, member of the CXC chemokine family
increase in viable cell number (NCI-H69 cells [2]): 15.5%
effect on cell survival (NCI-H69 cells [2]): neither SCF nor SDF-1α showed any effect
adhesion and morphology of cells with SDF-1α (NCI-H446 cells): almost all cells tightly adhered to the bottom of the dish and neurite like projections were induced in many cells
morphological change of NCI-H69 cells in response to ligand (NCI-H69 cells [1]): more apparent as projections
time to tyrosine phosphorylated bands between 70-120 kDa ([3]; SDF-1α 50 ng/ml, serum starved NCI-H69 cells): ≤ 15 min
